Experimental data from patent US20250205260A1, “ADJUNCTIVE TREATMENT OF MYCOBACTERIAL DISEASES” (UNIVERSITY OF SOUTHERN CALIFORNIA, priority 2022, published 2025).
≈ marks a conversion by molar mass, not a printed value.

System: ΔtreS (TreS-deficient M. tuberculosis)
Assay type: cell-based, Mycobacterium tuberculosis

COc1nc2ccc(Br)cc2cc1[C@@H](c1ccccc1)[C@@](O)(CCN(C)C)c1cccc2ccccc12 [BDQ, bedaquiline]
IC95 ΔtreS: 0.21 µg/mL (≈ 0.378 µM)

NNC(=O)c1ccncc1 [INH, isoniazid]
IC95 ΔtreS: 0.12 µg/mL (≈ 0.875 µM)
